According to patent US20140221656A1, “CRYSTALLINE SOLVATES OF 6-(PIPERIDIN-4-YLOXY)-2H-ISOQUINOLIN-1-ONE HYDROCHLORIDE” (SANOFI, priority 2011, published 2014):
“Also recorded” adds a separate entry of the source. Structures can show the parent of a compound that is named as a salt.

Assays:
Type in all cases: physicochemical
[1] = Humidity-controlled XRPD in a humidity chamber; details: for time until transformation into the dihydrate at 95% relative humidity: held at 95% r.h., hydrochloride
Procedure: When humidity-controlled XRPD was performed at 25 and 40° C., widely identical results were obtained.
Exposure to elevated humidity causes transformation to the dihydrate as determined with humidity-controlled XRPD performed at 25° C. […] Phase 1 transformed into the dihydrate after about 15 min at 95%, which in turn changed to phase 2 after about 40 min at 2% r.h.
Exposure to elevated humidity causes transformation to the dihydrate as determined by humidity-controlled XRPD at 25° C. […] As a result phase 3 transformed into the hydrate after about 30 min at 95%, which in turn changed to phase 2 after about 30 min at 2% r.h.
Exposure to elevated humidity causes transformation to the dihydrate as determined by humidity-controlled XRPD. […] As a result phase 4 transformed into the dihydrate after about 15 min at 95%, which in turn changed to phase 2 after about 20 min at 2% r.h.
(§1) All X-ray powder diffraction was performed with Stoe Stadi-P transmission diffractometers using CuKα1 radiation (Lambda is 1.54060 Angström). For room temperature powder diffraction, linear position sensitive detectors were used; while for temperature-resolved XRPD image plate position sensitive detectors (IP-PSDs) were used. Unless stated otherwise, X-ray powder diffraction was performed at room temperature. Dry samples were investigated in a flat preparation whereas suspensions were investigated in quartz glass capillaries. The measured data were evaluated and plotted with the Software WinXPOW V2.12.

[2] = Dynamic vapor sorption (DVS) water vapor sorption and desorption isotherms; details: DVS 25° C.; for hygroscopicity / water content as a function of relative humidity: FIG. 13 and 14
Procedure: Moreover, the dihydrate may also be characterized by its DVS (dynamic vapor sorption) water vapor sorption and desorption isotherms measured at 25° C. as shown in FIG. 3. Before starting the sorption cycle the dihydrate probe is treated with dry nitrogen gas resulting in a transformation into phase 2 as shown by humidity resolved XRPD. […] In the sorption cycle the water content of the probe quickly increases when phase 2 is exposed to relative humidities between 1 and 20% and remains almost constant between 20 and 95%. In the desorption cycle the water content remains almost constant when the dihydrate is exposed to relative humidities between 95% and 20%. A weight loss starts below 20% relative humidity and becomes strong below 10%, especially below 5%. The change in mass at low relative humidity is completely reversible and when the humidity increases again, the rehydration proceeds rapidly with small samples. However, for bulk samples rehydration of over-dried samples can take considerably longer and rehydration may require several days. Almost identical water sorption and desorption isotherms are observed at 40° C.
With decreasing humidity the dihydrate converts back at low humidity (below about 10% r.h.) into phase 2 (cycle 1, desorption). Phase 2 then converts into the dihydrate with increasing humidity and along the same isotherm it converts back with decreasing humidity into polymorph 2 (cycle 2, see also FIG. 3)
Moisture sorption/desorption isotherms were recorded on a DVS-1 from Surface Measurement Systems. […] Typical total measurement times for both cycles are about 20-30 hours.

[3] = Storage under usual storage conditions (25° C./65% relative humidity)
Procedure: Moreover, the corresponding amorphous material is hygroscopic and the water content varies much stronger with the relative humidity compared to the dihydrate. This water uptake and variability in water content makes precise dosing during drug product manufacturing difficult. In contrast, the dihydrate has been proven to be stable for more than two years under usual storage conditions (no detectable decomposition at 25° C./65% relative humidity). Accordingly, the crystalline dihydrate is therefore the preferred solid form for drug product manufacturing.

[4] = Temperature-resolved XRPD
Procedure: Based on these findings the dihydrate is stable below 90° C. and thus also at room temperature. Therefore, in comparison to the other described anhydrous polymorphs, the dihydrate is particularly suitable when a high stability is desired. It is the only one that can be stored at relative humidities between 20 and 95% in different environments below 90° C., which are usual storage conditions, without the risk of transformation into another described crystalline phase. Even if exposed to a very dry environment, a possible water loss is reversible and the missing water is gained back once the compound is back in an environment having usual humidity conditions. Therefore, the dihydrate is in particular suitable for the preparation of medicaments and pharmaceutical compositions with improved stability.
as §1, with “Dry samples were investigated in a flat preparation whereas suspensions were investigated in quartz glass capillaries.” left out

[5] = Thermogravimetric analysis (TGA)
Procedure: On heating the dihydrate in a dry environment, a significant weight loss starts already at slightly elevated temperature and ends at about 110° C.
In this temperature range, transformation to phase 3 was observed as determined by XRPD.
The thermogravimetric analyses were performed with a METTLER TGA851e (module TGA/SDTA851e/SF1100/042). 100 μl Al crucibles sealed with lid were used. The sample changer punches a pinhole into the lid immediately before the start of the measurement. The oven cell is purged with a nitrogen gas flow of about 50 mL/min. The measurements typically start with a hold time of about 25 min at 25° C., followed by heating of the sample with a rate of 10°/min. Temperature and weight loss were checked by a calcium oxalate hydrate reference sample.

[6] = Maturation experiments (slurry conversion), relative stability of polymorphs and hydrate; details: for relative thermodynamic stability among the phases: suspensions of phase mixtures in dry organic solvents, 0 to 40° C., hydrochloride
Procedure: By maturation experiments (slurry conversion) at the given temperature the relative stability of the polymorphs of compound (I) and the hydrate was investigated.
The following maturation experiment was performed by stirring the suspension under the specified conditions, starting from the dihydrate. The sample was investigated by XRPD in suspension, after vacuum filtration as well as after drying over night at 40° C. in vacuum (<50 mbar). The isolated material was also investigated by DSC and TGA.
(a) Maturation of 0.210 g dihydrate of compound (I) in 0.4 mL of water at 20° C. for 35 days. Similar, maturation of the dihydrate was done in water/methanol (vol/vol 1:1) and in water/ethanol (vol/vol 1:1).
The following maturation experiments were performed by stirring the suspension under the specified conditions and isolating the solid by vacuum filtration, starting from dihydrate of compound (I). The sample was investigated by XRPD in suspension, after vacuum filtration as well as after drying. The isolated material was also investigated by DSC and TGA.
(b) Maturation of 0.203 g of dihydrate of compound (I) in 1.2 mL of methanol at 20° C. for 35 days.
(c) Maturation was also done as in (b) by using ethanol, 1-propanol or 2-propanol.
(d) Maturation of […] of dihydrate of compound (I) in 2.0 mL of 2-butanol at 20° C. for 35 days.
The following maturation experiments of suspensions of phase mixtures of the dihydrate of compound (I) and phases consisting of polymorphs 1, 3 and 4 were performed at 0, 20 and 40° C. The product was isolated by vacuum filtration and analyzed after drying.
(e) Maturation of a mixture of 0.3 mg phase 1, 23.9 mg phase 3, 29.9 mg phase 4 and 27.9 mg of the dihydrate in 0.7 mL 2-propanol at 0° C. for 2 weeks.
(f) Maturation of a mixture of 0.3 mg phase 1, 27.2 mg phase 3, 18.1 mg phase 4 and 29.6 mg of the dihydrate in 2.0 mL 2-butanol at 0° C. for 2 weeks.
(g) Similar experiments as in e) and f) were done with corresponding mixtures of phase 1, phase 3, phase 4 and the dihydrate in 2-propanol and 2-butanol at 20° C. and at 40° C., respectively.

[7] = Drying of the dihydrate, retention of crystal structure; details: dried dihydrate
Excerpt: In a further embodiment of the hydrate the water content is 11.4% (w/w). in a further embodiment the hydrate contains 2.0 molecules water per molecule (I). Although the hydrate phase typically contains about 10-12.5% water it can also occur with lower water content. The crystal structure of the hydrate remains even if the dihydrate is dried and the remaining water content is down to about 3%. Water uptake is reversible if humidity in the environment is raised again. The water content in the isolated product depends on the drying conditions used during work up of the hydrate after crystallisation.

[8] = Storage at 20° C. and 75% relative humidity
Procedure: Also storage of phase 1 at 20° C. and 75% relative humidity caused complete conversion to the dihydrate within 3 weeks. The rate of conversion correlates with the relative humidity.
(§2) Also storage of phase 3 at 20° C. and 75% relative humidity caused complete conversion to the dihydrate within 3 weeks. The rate of conversion correlates with the relative humidity. When suspended in water, complete transformation into the dihydrate was observed almost immediately (<10 min).
Also storage of phase 4 at 20° C. and 75% relative humidity caused complete conversion to the dihydrate within 3 weeks. The rate of conversion apparently correlates with the relative humidity.

[9] = Stability of the solvate outside the mother liquor; details: in the presence of humidity starts to transform to the hydrate
Excerpt: Thus, a further aspect of the present invention relates to the use of the methyl acetate solvate of compound (I) for the production of the hydrate, for example by subjecting it to conditions, such as an elevated temperature and/or humidity which facilitate the loss of methyl acetate and attracting water.

[10] = Suspension in water, transformation into the dihydrate
Procedure: as §2

Q: Which results are given for `O=c1[nH]ccc2cc(OC3CCNCC3)ccc12` [dihydrate, 6-(Piperidin-4-yloxy)-2H-isoquinolin-1-one hydrochloride dihydrate]?
A: relative humidity at which the hydrate reversibly transforms into phase 2 ([1]; humidity chamber XRPD, r.h. cycled between 2% and 95%): 2 % r.h.; time until the dihydrate changed to phase 2 at 2% r.h. ([1]; humidity-controlled XRPD, held at 2% r.h., hydrochloride dihydrate): about 30 min; hygroscopicity / water content as a function of relative humidity ([2]; hydrochloride dihydrate): maintains a quite constant water content; relative humidity below which the dihydrate converts into phase 2 ([2]; cycle 1, desorption): below 10 % r.h.; relative humidity below which weight loss starts ([2]; desorption cycle): below 20%; time proven stable under usual storage conditions (no detectable decomposition) [3]: more than two; temperature below which the form is stable ([4]; based on temperature-resolved XRPD findings): below 90 °C; temperature at which transformation to phase 3 starts ([4]; heating, accompanied by loss of water): about 90 °C; TGA weight loss (water) on heating ([5]; heating in a dry environment, ends at about 110° C.): 10.8 mass-%; solid phase after maturation in 2-butanol ([6]; 2-butanol, 20° C., 35 days, after drying): Polymorph 4 was obtained; solid phase after maturation in alcohols ([6]; methanol, ethanol, 1-propanol or 2-propanol, 20° C., 35 days): polymorph 3 was obtained; solid phase after maturation in aqueous media ([6]; water, water/methanol 1:1, water/ethanol 1:1, 20° C., 35 days): remained as dihydrate; remaining water content down to which the hydrate crystal structure remains on drying [7]: about 3%

Q: For `O=c1[nH]ccc2cc(OC3CCNCC3)ccc12` [amorphous material, 6-(Piperidin-4-yloxy)-2H-isoquinolin-1-one hydrochloride], which “hygroscopicity / water content as a function of relative humidity” value ([2]; hydrochloride) is on record?
A: The value was “hygroscopic”.

Q: What does the source list for `O=c1[nH]ccc2cc(OC3CCNCC3)ccc12` [1,4-dioxane solvate, 6-(Piperidin-4-yloxy)-2H-isoquinolin-1-one hydrochloride×0.5 1,4-dioxane solvate]?
A: stability of the solvate (in words) ([5]; from TGA / temperature-resolved XRPD): relatively stable; TGA weight loss ([5]; mainly in a temperature range from 80 to 120° C.): 16.6%

Q: What does the source list for `O=c1[nH]ccc2cc(OC3CCNCC3)ccc12` [phase 4, 6-(Piperidin-4-yloxy)-2H-isoquinolin-1-one hydrochloride]?
A: time until transformation into the dihydrate at 95% relative humidity ([1]; humidity-controlled XRPD): about 15 min; time to complete conversion to the dihydrate on storage [8]: ≤ 3 weeks; relative thermodynamic stability among the phases [6]: only a metastable one

Q: For `O=c1[nH]ccc2cc(OC3CCNCC3)ccc12` [methyl acetate solvate, 6-(Piperidin-4-yloxy)-2H-isoquinolin-1-one hydrochloride], which “stability outside the mother liquor (in words)” value [9] is on record?
A: The value was “only moderately stable”.

Q: Which results are given for `O=c1[nH]ccc2cc(OC3CCNCC3)ccc12` [phase 3, 6-(Piperidin-4-yloxy)-2H-isoquinolin-1-one hydrochloride]?
A: time until transformation into the dihydrate at 95% relative humidity ([1]; humidity-controlled XRPD): about 30 min; relative humidity above which phase changes into the dihydrate ([2]; cycle 1, sorption): above 80%; time to complete conversion to the dihydrate on storage [8]: ≤ 3 weeks; relative thermodynamic stability among the phases [6]: thermodynamically most stable anhydrous form; also recorded: most stable anhydrous phase; time to complete transformation into the dihydrate when suspended in water [10]: < 10 min

Q: Which “time until transformation into the dihydrate at 95% relative humidity” value ([1]; humidity-controlled XRPD) does the source give for `O=c1[nH]ccc2cc(OC3CCNCC3)ccc12` [phase 1, 6-(Piperidin-4-yloxy)-2H-isoquinolin-1-one hydrochloride] here?
A: Its value is “about 15 min”.

Q: What about the “time to complete conversion to the dihydrate on storage” value [8] of the same compound?
A: The value was no more than 3 weeks.

Q: What about the “relative thermodynamic stability among the phases” value [6] of the same compound?
A: The value was “only a metastable polymorph”.
